Measurements: PubChem BioAssay AID624404 (Broad Institute, 2012)
Records with an inconclusive call do not appear.

Tested on: D54 LucT luciferase reporter counterscreen, luminescence, 24 h
Assay: luciferase activators in glycosylation-insensitive reporter cells, dose response, counter-screen for N-linked glycosylation inhibitor project, D54 LucT cells, luminescence, cherry pick (AID 624404)

SMILES	AC35 [nM]
Cc1ccc2c(c1)NC(=O)[C@@]1(C)[C@@H](c3ccccc3)[C@H]3COc4ccccc4[C@@H]3N1C2=O	371
O=C(Nc1ccccc1)N(CCN1CCOCC1)Cc1ccccc1F	2370
Cc1ccc(N=Nc2c(N)nn(-c3ccccc3)c2N)cc1	56.1
Cc1ccc(C(=O)N/C(=C/c2cccs2)C(=O)NCCc2c[nH]c3ccccc23)cc1	1170
COc1cc2c(cc1OC)C(c1ccccc1)N(C(=O)c1ccccc1)CC2 (centres undefined)	321
C(=C\c1nccc2c1[nH]c1ccccc12)/c1ccccc1	7.01
CCOC(=O)c1[nH]c(C)c(C(=O)c2ccc(C)cc2)c1C	1100
COc1ccc(Nc2nc(-c3sc(C)nc3C)cs2)c(OC)c1	75
COc1ccccc1N1CC(O)=C(c2nc3ccccc3c(=O)[nH]2)C1=N	5720
COc1ccc(C(=O)/C=C/c2ccc(OC)c(O)c2)c(F)c1	219
COc1ccc(NC2=C(C)C(=O)CC2)cc1	380
CN1C(=O)CSc2ccc(NC(=O)Nc3ccccn3)cc21	828
Cc1ccnc(NC(=O)CN2C(=O)NC(C)(c3ccc4ccccc4c3)C2=O)c1 (centres undefined)	362
CCCCn1c(SCc2c(C)noc2C)nc2cc(S(N)(=O)=O)ccc21	680
O=C(N/N=C/c1ccc(Cl)cc1)c1sccc1OCc1ccc(F)cc1	514
O=C(CCl)Nc1cc(S(=O)(=O)N2CCCCCC2)ccc1Cl	1160
Cc1ccnc(NC(=O)C(Cc2ccccc2)NC(=O)c2ccccc2)c1 (centres undefined)	335
COc1cc(-c2[nH]ncc2CN2CCSCC2)cc(OC)c1OC	3500
O=C(COc1ccc(/C=N/NC(=O)c2cc3ccccc3o2)cc1Br)Nc1ccccc1	27
CC12CC[C@H]3[C@@H](CCC4(O)C[C@H](O)CCC34/C=N/NC(=O)c3ccccc3O)C1(O)CCC2C1=CC(=O)OC1 (some centres undefined)	6220
Cc1cc(C)cc(-n2c3ccc(NC(=O)Cc4cccc5ccccc45)cc3c(=O)n2C)c1	5010
O=S(=O)([N-]c1nc2ccccc2nc1-n1cc[n+](Cc2ccccc2)c1)c1ccccc1	648

SMILES	AC35 [nM]
O=C(NC(=C(Cl)Cl)S(=O)(=O)c1ccc(Cl)cc1)c1ccccc1	2160
Cc1ccc(Nc2nc(-c3sc(C)nc3C)cs2)cc1	46.9
O=S(=O)([N-]c1nc2ccccc2nc1-n1cc[n+](Cc2ccccc2)c1)c1ccc(Cl)cc1	89.8
Cc1ccc(S(=O)(=O)C(NC(=O)c2ccccc2)=C(Cl)Cl)cc1	4390
COc1cc(Nc2c3ccccc3nc3ccccc23)cc(OC)c1OC	4160
Cc1cc(C)c2c(N)c3cccc(C)c3nc2n1	5820
CC(=O)Nc1cc(-c2cccc(C(=O)N(C)C)c2)cn2c(-c3cccc(C(=O)N(C)C)c3)cnc12	1740
Cc1cccc(CCNC(=O)CCCOc2cc(=O)n(C)c3ccccc23)c1	321
CC(C)(C)c1ccc(OCc2ccc(C(=O)Nc3cccnc3)o2)cc1	519
Cc1cccc(NC(=O)Nc2cccc(C#N)c2)n1	467
CCC(C)[C@H](NC(=O)N1CC(=O)Nc2ccccc21)C(=O)Nc1ccccc1C (some centres undefined)	2750
O=c1cc(-c2ccccc2)nc2cc(-c3ccc(F)cc3)[nH]n12	2190
CCc1ccc(N2C(=O)Nc3ccccc3C2(O)C(=O)N2CCN(c3ccccn3)CC2)cc1 (centres undefined)	493
CCCCC[C@H](O)/C=C/[C@@H]1[C@@H](C/C=C\CCCC(=O)OC)[C@@H](O)C[C@H]1O	< 1.2
NC(=O)CC(NC(=O)Cc1ccc(Br)cc1)c1ccc(NC2CCC2)c([N+](=O)[O-])c1 (centres undefined)	1710
Cc1cc2cc(CNC(=O)Cc3cccs3)ccc2n1C	13600
N#Cc1c(N)n(CCc2ccc(F)cc2)c2nc3ccccc3nc12	1880
O=c1cc(-c2ccccc2)[nH]c2cc(F)ccc12	2380
O=C1[C@H]2[C@@H](c3ccc(F)cc3)N3C(=O)N(c4cccc(Br)c4)C(=O)[C@@]3(Cc3ccccc3)[C@H]2C(=O)N1C1CCCCC1	480
COc1ccc(OC)c(N(CC(=O)Nc2cccc3ccccc23)S(C)(=O)=O)c1	2420
CCc1ccc(OCC(=O)Nc2ccncc2)c(Br)c1	598
O=C(c1cccs1)N1CCC(c2nc3c(nnn3Cc3cccc(Cl)c3)c(=O)[nH]2)CC1	174

SMILES	AC35 [nM]
Cc1cccc(/C=N\Nc2cn[nH]c(=O)c2Cl)c1	163
Cc1ccc2[nH]c(=O)c3cc(C(=O)NC(C)C)sc3c2c1	2390
C(=N\Nc1nc2ccccc2[nH]1)/c1c[nH]c2ccccc12	718
O=C(O)c1ccc(CN2C(=O)c3cccc4c([N+](=O)[O-])ccc(c34)C2=O)cc1	1140
CCOc1cc(C(=O)Nc2ccc(N3CCOCC3)cc2)cc(Br)c1OC	3660
COc1ccccc1-c1csc(C(NC(C)=O)c2ccccc2)n1 (centres undefined)	643
Cc1nc2ncccn2c1-c1csc(Nc2ccc(N(C)C)cc2)n1	28.9
Cc1ccc(S/C=C\C(=O)c2ccccc2)cc1	135
C#CCCOC(=O)N1C2=NC(C(=O)OC)=C(C(=O)OC)[C@@H]3N(C)c4ccccc4[C@]23C[C@H]1C(=O)OC	934
Cn1c(=O)[nH]c(=O)c2c1nc(N(CCO)Cc1ccccc1)n2CCCc1ccccc1	547
c1ccc(N=Nc2ccc3cccccc2-3)cc1	355
NNC(=O)c1oc2nc(-c3cccs3)cc(-c3ccco3)c2c1N	2930
CC[C@]12c3[nH]c4cc(CCC(=O)N(C)C)ccc4c3CCN1C(=O)[C@@H](CC(=O)NC/C=C(\C)CCC=C(C)C)C[C@@H]2C(=O)N1CCN(C(=O)c2ccco2)CC1	267
O=C(NCCCN1CCOCC1)c1cc(-c2cccs2)on1	3630
O=C(Nc1ccccc1O)c1ccc(NC(=O)C2CC2)cc1	432
O=C(Nc1ccccc1N1CCOCC1)c1ccc2nc[nH]c2c1	852
Nc1[nH]nc2nc(NCc3ccccc3)c3c(c12)CCN(Cc1ccccc1)C3	2840
CCOc1ccc2c(c1)OC(c1ccc(OC)cc1)(C(F)(F)F)NC2=O (centres undefined)	748
COc1ccccc1NS(=O)(=O)c1ccc(C(=O)Nc2ncccc2O)cc1	8860
C[C@]1(O)CC(=O)C=C[C@H]1Nc1ccccc1	1970
O=C(C[C@H]1C/C=C\C[C@H](Cc2ccc(F)cc2)C(=O)O[C@@H](c2ccccc2)CNC1=O)N[C@@H](CO)Cc1ccccc1	575
CC(Nc1nc(-c2ccccc2)nc2ccccc12)c1ccccc1 (centres undefined)	379

SMILES	AC35 [nM]
NC(=O)CC(NC(=O)Cc1ccc(Br)cc1)c1ccc(NC2CCCC2)c([N+](=O)[O-])c1 (centres undefined)	2870
COc1ccc(Nc2nc(N(C)c3ccccc3)nc(N)c2[N+](=O)[O-])cc1	171
COc1ccc(CNC(=O)C/C(C)=N/NC(=O)COc2ccc(C)cc2Br)cc1	3090
CC(Nc1nc(-c2cccnc2)nc2ccccc12)c1ccc(F)cc1 (centres undefined)	3450
O=C(Nc1cc(Cl)ccc1N1CCOCC1)c1ccc(N2CCCC2=O)cc1	212
NC(=O)CC(NC(=O)Cc1ccc(Br)cc1)c1ccc(NC2CCN(Cc3ccccc3)CC2)c([N+](=O)[O-])c1 (centres undefined)	983
COc1cccc(C(NC(C)=O)c2nc(-c3ccc(F)cc3OC)cs2)c1 (centres undefined)	63.3
CCc1ccc(N2C(=O)NC(=O)/C(=C\C=C\c3ccco3)C2=O)cc1	1740
CCCNC(=O)c1cc(-c2ccco2)on1	903
COc1ccc(CCNC(=O)c2cc(-c3ccco3)on2)cc1OC	15000
COc1ccc(/C=C/C(=O)c2c(O)cc(OC)cc2OC)cc1	3210
Nc1nc(-c2ccccn2)nc(N)c1Cc1ccc(Cl)cc1Cl	1480
CC(C)(C)S(=O)N1Cc2cc(C(=O)NCC(F)(F)F)nc(-c3cccc(-c4cccc(F)c4)c3)c2[C@@H]1CCO (some centres undefined)	1780
COc1ccc(/C=N\NC(=O)c2sccc2C)cc1Cn1nc(C)cc1C	280
CC(C)Oc1ccc(C(=O)Nc2ccc3c(c2)n(C)c(=O)n3C)cc1	5520
Cn1c(=O)n(C)c2cc(C(=O)Nc3ccc4c(c3)OCO4)ccc21	1870
O=C(/C=C/c1ccccc1)c1ccccc1	1200
CCOC(=O)c1[nH]c(C)c(C(=O)Nc2cc(OC)ccc2OC)c1C	345
O=C(Nc1ccccc1O)c1ccc(NS(=O)(=O)c2cccc3cccnc23)cc1	4410
Cc1nnc2n(c1=O)N=C(c1ccc(Cl)cc1)CS2	33.5
CCc1ccc(C2c3[nH]c4ccccc4c3CCN2C(=O)c2ccc(=O)n(C)n2)cc1 (centres undefined)	1240
CCOC(=O)c1[nH]c2c(c1-c1ccccc1)C(=O)CC(c1ccccc1)C2 (centres undefined)	2690

SMILES	AC35 [nM]
COc1cc2c(cc1OC)C(c1ccccc1)N(C(=O)c1cccc(S(C)(=O)=O)c1)CC2 (centres undefined)	212
CC(=O)Nc1ccc(Nc2ccc3c4c(cc(=O)n3C)-c3ccccc3C(=O)c24)cc1	345
CCOc1ncccc1C(=O)Nc1cc2c(cc1Br)OCCO2	169
COc1cccc(C(NC(C)=O)c2nc(-c3ccccc3C)cs2)c1 (centres undefined)	678
CSc1cccc(NC(=O)CCCOc2cc(=O)n(C)c3ccccc23)c1	4530
O=C(NCCCN1CCOCC1)c1cc(-c2ccccc2)on1	3040
CCOC(=O)c1cnc2c(ccc3ccccc32)c1NCCCN(C)C	515
COc1cc(C(=O)N/N=C/c2ccc3c(c2)c2ccccc2n3C)ccc1O	9590
O=C(c1cccc(Oc2ccccc2)c1)N1CCN(c2ccccn2)CC1	2960
Cc1nn(-c2ccccc2)c2c1CC(=O)Nc1ccccc1-2	3160
O=C1NC(=O)N(Cc2ccco2)C(=O)/C1=C/C=C/c1ccco1	12300
CC(CCc1ccco1)NC(=O)CCc1nnc2ccc(NCc3ccc(Cl)cc3)nn12 (centres undefined)	1580
CSc1ccc(/C=N/NC(=O)c2ccccc2Cl)cc1	1230
Cn1nc(-c2ccccc2)c(CSc2ccccc2Cl)c1Cl	1120
O=C(C=Cc1ccccc1F)c1ccccc1	199
CC(C)(C)S(=O)(=O)N1C[C@H]2CC/C=C\C/C(c3ccccc3)=C\2[C@@H]1CCO	536
CC(=O)OC1CC[C@]2(C#N)[C@H]3CC[C@]4(C)[C@H](C5C=CC(=O)O5)CCC4(O)C3CCC2(O)C1 (some centres undefined)	2850
Cc1ccc(N2CCN(C3=NC(=O)/C(=C\c4cn[nH]c4-c4ccccc4)S3)CC2)cc1	793
Cc1ccc(NC(=O)c2ncn(CCCNCc3ccccc3)n2)cc1C	994
Oc1[nH]c(N=C2N=c3ccccc3=N2)c2ccccc12	17.2
COc1ccc2c(c1)OC[C@H]1[C@H]2N2C(=O)c3cc(OC)ccc3NC(=O)[C@@]2(C)[C@H]1c1ccccc1	1080
